In US20220305013A1, “STABLE COLLOIDAL DRUG AGGREGATES AND METHODS OF MANUFACTURE AND USE THEREOF” (THE GOVERNING COUNCIL OF THE UNIVERSITY OF TORONTO, priority 2019, published 2022):

Legend:
[1] = Critical aggregation concentration (CAC) by dynamic light scattering in pH-adjusted PBS; assay type: physicochemical; conditions: for critical aggregation concentration (CAC) as a function of pH: pH 7.4 vs 5.5, DLS; for CAC over a range of pH values: DLS
Method: CAC values are calculated by preparing colloidal formulations with different concentrations and measuring the scattering intensity (or fluorescence intensity when appropriate). The data is then fit to Equation S4, which was derived from first principles (Equations S1-S3), using the MATLAB curve fitting toolbox to obtain the critical aggregation concentration (CAC) under the conditions used.
Colloids were formulated as described in Example 1. […] 100 μL of each sample was analyzed by DLS and the CAC's calculated as described in Example 1.
Colloids were formulated as described in Example 1. Briefly, solutions of fulvestrant analogue in DMSO were prepared at various concentrations and then diluted 100-fold with PBS at different […]. 100 μL of each sample was analyzed by DLS and the CAC's calculated as described in Example 1.
Colloids were formulated as described in Example 1. Briefly, solutions of siramesine in DMSO were prepared at various concentrations and then diluted 100-fold with pH-adjusted PBS containing stabilizer (where applicable). 100 μL of each sample was analyzed by DLS and the CACs calculated as described in Example 1.

[2] = Zeta potential; assay type: physicochemical; conditions: 0.1 mM KCl
Method: Colloids were prepared as described above, but with a single addition of 0.1 mM KCl solution instead of water and buffer. Zeta potential was immediately assessed using a Malvern Nano-ZS (Malvern Panalytical).

[3] = Drug release from colloids (centrifugation, drug in supernatant by HPLC-MS-MS); assay type: physicochemical; conditions: for amount of drug released from co-colloids as a function of pH / drug release over time after acidification to pH 5.5: 12.5 μM lapatinib, 37.5 μM fulvestrant, 0.01 mg/mL PLAC-PEG in PBS
Method: Drug release was measured by centrifuging to pellet the colloids, and then by quantifying the drug in the supernatant. Colloid formulations were centrifuged at 16,000×g for 1 h, followed by withdrawal of 100 μL for quantification. Another 100 μL was withdrawn for DLS analysis to confirm that the colloids had completely settled out of solution. Non-centrifuged colloid suspensions were used as controls.
Drug concentration in samples from drug release and membrane permeability assays was quantified by high pressure liquid chromatography coupled with tandem mass spectrometry (HPLC-MS-MS). Protein was precipitated from samples in serum containing media by spiking with 10 μL of formic acid and adding acetonitrile to a final volume of 1 mL. The precipitated samples were then centrifuged at 16,000×g for 5 min to pellet the proteins. The drug-containing supernatant was then diluted in methanol such that the final drug concentration was less than 100 ng mL^−1. During the final dilution, internal standards (nilotinib for lapatinib and norethindrone for fulvestrant) were added to a final concentration of 25 ng/mL each. Standard curves were prepared in a similar way, by diluting 100 mM solutions of drug in DMSO with methanol to final concentrations of 100, 75, 50, 25, 10, 5, 2.5, and 1 ng mL^−1, each with 25 ng mL^−1 of internal standard.

[4] = Membrane permeability assay; assay type: in vitro ADME; conditions: co-colloids 50 μM lapatinib, 150 μM fulvestrant, 0.04 mg/mL PLAC-PEG, 10% FBS, 6 h, 37° C., acidified vs not
Method: Supported artificial lipid membranes were prepared according to the manufacturer instructions (EMD Millipore cat #MATRNPS50). Briefly, a 1% (w/w) solution of egg lecithin in dodecane was prepared by sonicating until the solution was no longer cloudy. A 5 μL aliquot of this phospholipid solution was dropped by pipette into each well of the mesh plate, which wet the membrane and caused it to become translucent. Receiver solution was prepared as 1% (v/v) DMSO and 10% (v/v) FBS in PBS and 340 μL was pipetted into each well of the receiver plate. Lapatinib and fulvestrant solutions ranging from 0 to 5 μM for constructing the standard curve were prepared in identical media and pipetted into separate wells of the receiver plate. Colloids were prepared in PBS containing 10% (v/v) FBS as described above, and 150 μL was pipetted into the mesh plate wells corresponding to the receiver solution in the receiver plate. The mesh plate and receiver plate were gently mated, resulting in the receiver solution wetting the bottom of the phospholipid membrane. […] Finally, the stack was carefully disassembled and a 200 μL sample of receiver and standard curve solutions was withdrawn for drug quantification as described below. […]
Drug concentration in samples from drug release and membrane permeability assays was quantified by high pressure liquid chromatography coupled with tandem mass spectrometry (HPLC-MS-MS). […]

[5] = Acid responsiveness of colloids prepared at different pH (spun down, absorbance); assay type: physicochemical; conditions: with or without Herceptin as stabilizing agent
Method: The colloids were prepared in different pH conditions, spun down, extracted from the supernatant by organic solvent, dried, reconstituted in DMSO and measured for absorbance.

Row | Compound | critical aggregation concentration (CAC) as a function of pH [1] | zeta potential (surface charge) [2] | CAC over a range of pH values [1] | amount of drug released from co-colloids as a function of pH [3] | transmembrane diffusion [4] | acid responsiveness of colloidal drug aggregate [5] | drug release over time after acidification to pH 5.5 [3] | ionization state of released lapatinib ([3]; calculated by acid-base theory from release data, low pH)
1 | C[C@]12CC[C@@H]3c4ccc(O)cc4C[C@@H](CCCCCCCCC[S+]([O-])CCCC(F)(F)C(F)(F)F)[C@H]3[C@@H]1CC[C@@H]2O (stereo partly drawn) [fulvestrant] | did not dissolve on acidification | negative zeta potential | No change in CAC values | unaffected by pH | – | – | remained unresponsive to acid | –
2 | CS(=O)(=O)CCNCc1ccc(-c2ccc3ncnc(Nc4ccc(OCc5cccc(F)c5)c(Cl)c4)c3c2)o1 [lapatinib] | pH-dependent CACs | – | – | increased with increasing acidity | reduced when the colloids were acidified | – | rapidly reached an equilibrium that was sustained for 24 h | Most lapatinib that is released at low pH is ionized
3 | CNC(=O)c1cc(Oc2ccc(NC(=O)Nc3ccc(Cl)c(C(F)(F)F)c3)cc2)ccn1 [sorafenib] | did not dissolve on acidification | – | not pH-dependent | – | – | did not demonstrate acid responsiveness | – | –

Second part, led by results:

Row | critical aggregation concentration (CAC) as a function of pH [1] | zeta potential (surface charge) [2] | CAC over a range of pH values [1] | amount of drug released from co-colloids as a function of pH [3] | transmembrane diffusion [4] | acid responsiveness of colloidal drug aggregate [5] | Compound | drug release over time after acidification to pH 5.5 [3] | ionization state of released lapatinib ([3]; calculated by acid-base theory from release data, low pH)
4 | pH-dependent CACs | – | – | – | – | – | Clc1ccccc1C(c1ccccc1)(c1ccccc1)n1ccnc1 [clotrimazole] | – | –
5 | – | – | increase in CAC values | – | – | – | Fc1ccc(-n2cc(CCCCN3CCC4(CC3)OCc3ccccc34)c3ccccc32)cc1 [siramesine] | – | –
